Among the data in the METLIN SMRT retention time set (Domingo-Almenara et al. 2019) are RP-LC retention time values, retold here.

This data set is described as follows: gradient 5% acetonitrile 3 min, to 50% in 2 min, to 85% in 15 min, held 3 min, 100 µL/min. The settings on record: column: Zorbax Extend-C18 2.1 x 50 mm; eluents: water / acetonitrile, 0.1% formic acid. In outline: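 Retention times come from adduct peaks that were picked computationally and then checked by hand. The standards, pure and pooled in mixtures of ~100 molecules, were run on a Zorbax Extend-C18 column (2.1 × 50 mm, 1.8 μm) at 100 μL/min with water and acetonitrile, each with 0.1% formic acid. Detection was by quadrupole time-of-flight mass spectrometry in positive and negative ionization mode, with a dead volume of 40 μL and a dwell volume of 900 μL.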
As to `Cn1c(=O)n(CCN2CCOCC2)c(=O)c2c1nc1n2CCCN1c1ccccc1`, the RP-LC retention time was 615 s.

`Cc1ccc(-c2nnc(N3CCC(C(=O)NCc4ccc5c(c4)OCO5)CC3)o2)cc1` came in with an RP-LC retention time of 838 s.

For `Cc1ccc(NC(=O)Nc2nccn(-c3ccc(F)cc3)c2=O)cc1C`, the RP-LC retention time came out at 1020 s.

In the case of `CC1CCN(C(=O)c2ccc(OCC3CCN(C(=O)c4ccc(C#N)cc4)CC3)cc2)CC1`, the RP-LC retention time came to 957 s.

Regarding `COc1ccc2nc(Nc3nc(-c4ccncc4)cs3)sc2c1`, the RP-LC retention time is 584 s.

`CCn1nnc(NCc2ccc(-c3ccc(C)c(Cl)c3)o2)n1` returned an RP-LC retention time of 1090 s.

`CCc1nc2onc(C)c2c(=O)n1CC(=O)NC1CCCc2ccccc21` (centres undefined) returned an RP-LC retention time of 892 s.

`COc1ccc(NC(=O)Cn2c(=O)n(-c3ccc(F)cc3)c(=O)c3c2cc(C)n3C)cc1OC` showed an RP-LC retention time of 739 s.

In turn, `COc1ccc(-c2nc3cnccn3c2Nc2ccc(C(C)C)cc2)cc1OC` showed an RP-LC retention time of 936 s.

Consider `O=C(C1=CN(c2ccc3c(c2)OCCO3)c2cc(Cl)ccc2S1(=O)=O)N1CCCC1`, for which the RP-LC retention time came out at 838 s.

`Cn1c(CN(c2ccc(F)cc2)S(C)(=O)=O)nnc1SCc1nnc(-c2ccccc2)o1` displayed an RP-LC retention time of 710 s.

`Cc1cc(F)ccc1N1C(=O)CN(S(C)(=O)=O)CC1(C)C(=O)NCc1ccccc1` (centres undefined): the RP-LC retention time is 804 s.

The molecule `COc1ccc(N2CCN(c3cc(SCC(=O)Nc4ccccc4F)ncn3)CC2)cc1` returned an RP-LC retention time of 1030 s.

In the case of `CN(C)C(=O)c1ccc2c(c1)N(CC(=O)Nc1cccnc1)C(=O)CO2`, the RP-LC retention time amounted to 572 s.

`CCc1ccc(C(=O)N2CCC3(C2)C(=O)N(C)c2ccc(OC)cc23)cc1` (centres undefined) yielded an RP-LC retention time of 840 s.

With `CCOCc1nc2c(N)nc3ccccc3c2n1CC(C)(C)O`, the RP-LC retention time was found to be 662 s.

The molecule `COc1ccc(NC2=NS(=O)(=O)C(c3ccc(F)cc3)=C2C)c(OC)c1` returned an RP-LC retention time of 929 s.

On to `Cc1cc(C)n(CCNC(=O)C(=O)Nc2cc(C)on2)n1`, for which the RP-LC retention time is 608 s.

In turn, `COc1ccc(C2Cn3nnc(C(=O)N4CCC(C(=O)NC5CCCC5)CC4)c3CO2)cc1` (centres undefined) gave an RP-LC retention time of 769 s.

As to `O=C(NCC(c1cccnc1)N1CCN(Cc2ccccc2)CC1)Nc1ccccc1Cl` (centres undefined), the RP-LC retention time was determined as 554 s.

Consider `NC(=O)[C@H]1CCCCc2c1[nH]c1ccc(Cl)cc21`, for which the RP-LC retention time stood at 819 s.

The molecule `Cc1csc(-c2cc(S(=O)(=O)NCCN3CCOCC3)cn2CC(=O)N2CCCCC2)n1` gave an RP-LC retention time of 654 s.

For `O=C(COc1ccc(Cl)cc1)N1CCC2(C1)C(=O)Nc1ccccc12` (centres undefined), the RP-LC retention time is 776 s.

`O=C(CCS(=O)(=O)c1ccccc1)NCc1cc(-c2ccccc2F)on1`: the RP-LC retention time was 742 s.

Take `COC(=O)c1cc(S(=O)(=O)N2CCN(c3cccc(C)c3)C(C)C2)c(C)n1C` (centres undefined): the RP-LC retention time was 1080 s.

`O=C(c1nc2ncccn2n1)N1CCCn2cc(-c3ccccc3)nc21`: the RP-LC retention time came out at 595 s.

Regarding `O=C(Cn1c(=O)cc(-c2nc(C3CC3)no2)c2ccccc21)NCc1ccc2c(c1)OCO2`, the RP-LC retention time amounted to 906 s.

Molecule `C=CC(=O)Nc1cccc(Sc2nc(Nc3ccc(N4CCN(C)CC4)cc3)ncc2Cl)c1` had an RP-LC retention time of 754 s.

For the molecule `c1ccc(-c2n[nH]c(C3CCCN(Cc4ccoc4)C3)n2)cc1` (centres undefined), the RP-LC retention time came out at 531 s.

In turn, `CC(NC(=O)c1cccs1)C(=O)Nc1nc2ccccc2[nH]1` (centres undefined) displayed an RP-LC retention time of 612 s.

Take `COc1ccc(-n2cc(C(=O)OCc3cc(=O)n4ccccc4n3)c3ccccc3c2=O)cc1`: the RP-LC retention time was determined as 861 s.

For the molecule `CCC(C)NC(=O)CN1CCN(C(=O)Nc2ccc(Cl)cc2)CC1=O` (centres undefined), the RP-LC retention time was determined as 686 s.

In turn, `CCc1ccc(CNC(=O)Cn2ccc3c(=O)n(CC)c(=O)n(CC)c32)cc1` returned an RP-LC retention time of 783 s.

On to `COc1ccc(OC)c(NC(=O)COc2cc(C(C)(C)C)nn2-c2nc(C)cc(C)n2)c1`, for which the RP-LC retention time was 881 s.

The molecule `O=C(Cn1cccc1-c1nnc(-c2ccccc2)o1)N1CCN(c2ccc(Cl)cc2)CC1` displayed an RP-LC retention time of 1100 s.

The molecule `O=C(CCC1CCCN(c2cc(NC3CC3)ncn2)C1)NCc1cccs1` (centres undefined) gave an RP-LC retention time of 640 s.

`CCN(CC)c1nc2ccsc2c(=O)n1CCC(=O)NC1CCCC1` gave an RP-LC retention time of 726 s.

As for `COc1ccc(NC(=O)N2CC(C)Oc3ccc(C)cc32)cc1` (centres undefined), the RP-LC retention time came out at 945 s.

As for `Cc1ccc(Sc2ccc(N3CCC(C(=O)N4CCN(c5ncccn5)CC4)CC3)nn2)cc1`, the RP-LC retention time was found to be 741 s.

Molecule `COC(=O)c1nc(NC(=O)Cn2nc3c(cc2=O)CCCCC3)sc1C(C)C` returned an RP-LC retention time of 864 s.

Turning to `O=C(NCCN1CCCCC1)C1CCc2sc(C(=O)N3CCOCC3)cc2C1` (centres undefined), the RP-LC retention time came out at 581 s.

For the molecule `O=C(Nc1ccc(-c2nc(-c3ccc(F)cc3)no2)cc1)c1ccc(Br)o1`, the RP-LC retention time is 1200 s.

Molecule `O=S(=O)(c1cccc(C(F)(F)F)c1)N1CCC(CN2CCCCC2)CC1` had an RP-LC retention time of 680 s.

Turning to `CCn1c(C(=O)Nc2cccc(C)n2)cc2c(=O)oc3ccccc3c21`, the RP-LC retention time worked out at 891 s.

`O=C1CC(NC(=O)c2cnn(-c3ccccc3)n2)CN1` (centres undefined) had an RP-LC retention time of 603 s.

As to `CN(C)c1ccc(CNC(=O)c2cc3n(n2)CC(C)(C(=O)NCc2ccc(F)cc2)N(C)C3=O)cc1` (centres undefined), the RP-LC retention time is 610 s.

Molecule `COc1ccccc1C(=O)Nc1cccc(Cl)c1` registered an RP-LC retention time of 964 s.

`O=C(C1=NN(Cc2cc(F)cc(F)c2)c2ccccc2S1(=O)=O)N1CCCCC1` showed an RP-LC retention time of 956 s.

Molecule `Cc1ccn2c(NC(=O)CCc3ccccc3)c(-c3ccccc3)nc2c1` showed an RP-LC retention time of 642 s.

`Cc1cc(C)c2[nH]c3c(c(=O)c2c1)CN(CC(=O)NCc1ccc2c(c1)OCO2)CC3` registered an RP-LC retention time of 620 s.

Consider `COC(=O)c1cnc2nc(C)ccc2c1Nc1ccc(Cl)cc1`, for which the RP-LC retention time came out at 705 s.

For `CCOc1ccc(-c2ccc(=O)n(Cc3nc(-c4ccc(F)cc4)no3)n2)cc1`, the RP-LC retention time turned out to be 1090 s.

In turn, `Cn1cc(-c2ccncc2)cc1C(=O)NCc1ccc(F)cc1Cl` yielded an RP-LC retention time of 653 s.

`Cc1csc(-c2ccc(N3CCN(C(=O)c4ccsc4)CC3)nc2)n1`: the RP-LC retention time was determined as 762 s.

With `Cc1cc(N2CCN(C)CC2)nc2ccc(NC(=O)C3CCC(C(C)(C)C)CC3)cc12` (centres undefined), the RP-LC retention time is 675 s.

`CCNC(=O)Nc1cccnc1N1CCCCC1` returned an RP-LC retention time of 577 s.

For `N#Cc1cccc(NC(=O)C2CCN(S(=O)(=O)c3ccc4c(c3)NC(=O)CO4)CC2)c1`, the RP-LC retention time came out at 763 s.

For `Cc1cc(N2CCN(C)CC2)nc(N2CCN(C(=O)c3ccc(Br)cc3)CC2)n1`, the RP-LC retention time amounted to 557 s.

With `CCN(CC)S(=O)(=O)c1ccc(C)c(-c2nnc(-c3ccccc3Cl)o2)c1`, the RP-LC retention time stood at 1140 s.

The molecule `Cc1c(Cl)cccc1NC(=O)C1CCCN(c2nc3c(s2)c(C)nn3-c2ccccc2)C1` (centres undefined) came in with an RP-LC retention time of 1250 s.

`CC(C)(C)c1ccc(C(=O)NC2CCN(c3cc(-c4ccc(F)cc4)[nH]n3)C2)cc1` (centres undefined) gave an RP-LC retention time of 899 s.

`CCCn1c(=O)c2cc(C(=O)NCc3ccc(F)cc3Cl)nn2c2ccccc21` yielded an RP-LC retention time of 834 s.

Take `O=C(NCCCN1CCCC1=O)c1csc(N2CCN(c3ccc(F)cc3)CC2)n1`: the RP-LC retention time came out at 714 s.

Turning to `CCC(C(=O)NCCCN1CCCC1)n1nc(C)c2sc3ccccc3c2c1=O` (centres undefined), the RP-LC retention time was found to be 669 s.

In turn, `Cc1ccc(NC(=O)Cn2c(=O)n(-c3ccc(F)cc3)c(=O)c3c2cc(C)n3C)cc1C` had an RP-LC retention time of 888 s.

Take `COc1cccc(Cc2nc(-c3cn(-c4cccc(F)c4)nn3)no2)c1`: the RP-LC retention time came to 993 s.

As to `CCn1cc(S(=O)(=O)N2CCC(c3noc(-c4cccnc4)n3)C2)cn1` (centres undefined), the RP-LC retention time is 710 s.

`O=C(C1CC1)N1CCc2sc(S(=O)(=O)Nc3ccccc3Br)cc2C1` had an RP-LC retention time of 858 s.

`CC(C)C(=O)Nc1ccc(C2(C(=O)NCc3ccco3)CCCCC2)cc1` displayed an RP-LC retention time of 889 s.

The molecule `CCc1nc2cc(-c3noc(-c4ccco4)n3)ccc2o1` had an RP-LC retention time of 968 s.

`CCC(C)NC(=O)CSc1nccc(N2CCN(c3cc(C)ccc3C)CC2)n1` (centres undefined) yielded an RP-LC retention time of 873 s.

Molecule `COC(=O)c1ccc(NC(=O)CC(C)S(=O)(=O)c2ccc3c(c2)NC(=O)CCS3)cc1` (centres undefined) came in with an RP-LC retention time of 740 s.

Molecule `O=C(COc1ccc(Cl)cc1)NCC1CCOCC1` returned an RP-LC retention time of 764 s.

`Cc1cc2[nH]c(C(=O)Nc3cc(F)ccc3F)c(CN3CCCC3)c2s1` showed an RP-LC retention time of 702 s.

Molecule `COc1ccc(OC)c(-c2ccc(=O)n(CCNC(=O)C(C)Oc3ccccc3F)n2)c1` (centres undefined) had an RP-LC retention time of 754 s.

Take `CCOCCCNC(=O)c1ccc(-c2ccc(N3CCCC3)nn2)cc1`: the RP-LC retention time turned out to be 558 s.

Consider `CCOc1ccc(NC(=O)N2CCN(c3nc4cccnc4s3)CC2)cc1`, for which the RP-LC retention time is 752 s.

Molecule `CN1c2cc(C(=O)N3CCN(c4ccccn4)CC3)ccc2C(=O)N2CCCCC21` (centres undefined) registered an RP-LC retention time of 588 s.

As for `CC(C)CCNC(=O)c1nnc(-c2ccc(S(=O)(=O)N3CCCCC3)cc2)o1`, the RP-LC retention time amounted to 1030 s.
